Reference: patent US20240156825A1, “USE OF SELECTIVE VEGFR2 AND FGFR1 INHIBITORS” (Fountain Therapeutics Inc., priority 2022, published 2024)
pIC50: −log10 of the molar value.

How the values were obtained:
Zmpste24−/− mice = assay: Mouse model of progeria: body fat (Echo MRI), lean muscle, body weight, intrascapular brown fat; format: in vivo; settings: oral gavage QD5 for 56 days
Procedure: Zmpste24 mice, a progeria model mouse line, were dosed with either 50 mg/kg Brivanib alaninate for 56 days, 5 days on, 2 days off (QD5), or vehicle alone. The dose was administered via oral gavage as a suspension of 18% (w/v) PEG400 2% (w/v) Tween-80 in water . The vehicle alone was 18% (w/v) PEG400 2% (w/v) Tween-80 in water.
The body fat of the mice was measured by an Echo MRI throughout the treatment.
Samples of intrascapular brown adipose tissue from 15 week old mice treated with Brivanib Alaninate or vehicle for 56 days underwent Hematoxylin and Eosin (H&E) staining.
Zmpste24−/− mice, a progeria model mouse line, were dosed with either 25 mg/kg SU5402 for 56 days, 5 days on, 2 days off (QD5) or vehicle alone. The dose was administered via oral gavage as a suspension of 5% (w/v) DMSO 9% (w/v) PEG400 1% (w/v) Tween-80 in saline. The vehicle alone was 5% (w/v) DMSO 9% (w/v) PEG400 1% (w/v) Tween-80 in saline.
The body fat of the mice was measured by an Echo […]. Lean muscle and body weight were also measured.
The dose was administered via oral gavage as a suspension of 18% (w/v) PEG400 2% (w/v) Tween-80 in water . The vehicle alone was 18% (w/v) PEG400 2% (w/v) Tween-80 in water.
The body fat of the mice was measured by an Echo MRI. […] There was also no alteration of intrascapular brown adipose tissue mass (FIG. 5D).
The dose was administered via oral gavage as a suspension of 18% (w/v) PEG400 2% (w/v) Tween-80 in water. The vehicle alone was 18% (w/v) PEG400 2% (w/v) Tween-80 in water.
The body fat of the mice was measured by an Echo MM. […] There was also no alteration of intrascapular brown adipose tissue mass (FIG. 6D).
The body fat of the mice was measure by an Echo MRI. […] There was also no alteration of intrascapular brown adipose tissue mass (FIG. 7D). […]

VEGFR2 and FGFR1 = assay: Selection of compounds that selectively inhibit both VEGFR2 and FGFR1 (average relative IC50); format: biochemical; settings: average of VEGFR2 and FGFR1 relative IC50;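 further: relative IC50 is the IC50 for VEGFR2 or FGFR1 divided by the next-lowest IC50 reported against any target gene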
VEGFR2 = VEGFR2 (Homo sapiens, UniProt P35968); settings: relative IC50: reported IC50 toward VEGFR2 divided by next lowest reported IC50 to any gene target
Sequence of VEGFR2 (P35968 20-1356, species assumed): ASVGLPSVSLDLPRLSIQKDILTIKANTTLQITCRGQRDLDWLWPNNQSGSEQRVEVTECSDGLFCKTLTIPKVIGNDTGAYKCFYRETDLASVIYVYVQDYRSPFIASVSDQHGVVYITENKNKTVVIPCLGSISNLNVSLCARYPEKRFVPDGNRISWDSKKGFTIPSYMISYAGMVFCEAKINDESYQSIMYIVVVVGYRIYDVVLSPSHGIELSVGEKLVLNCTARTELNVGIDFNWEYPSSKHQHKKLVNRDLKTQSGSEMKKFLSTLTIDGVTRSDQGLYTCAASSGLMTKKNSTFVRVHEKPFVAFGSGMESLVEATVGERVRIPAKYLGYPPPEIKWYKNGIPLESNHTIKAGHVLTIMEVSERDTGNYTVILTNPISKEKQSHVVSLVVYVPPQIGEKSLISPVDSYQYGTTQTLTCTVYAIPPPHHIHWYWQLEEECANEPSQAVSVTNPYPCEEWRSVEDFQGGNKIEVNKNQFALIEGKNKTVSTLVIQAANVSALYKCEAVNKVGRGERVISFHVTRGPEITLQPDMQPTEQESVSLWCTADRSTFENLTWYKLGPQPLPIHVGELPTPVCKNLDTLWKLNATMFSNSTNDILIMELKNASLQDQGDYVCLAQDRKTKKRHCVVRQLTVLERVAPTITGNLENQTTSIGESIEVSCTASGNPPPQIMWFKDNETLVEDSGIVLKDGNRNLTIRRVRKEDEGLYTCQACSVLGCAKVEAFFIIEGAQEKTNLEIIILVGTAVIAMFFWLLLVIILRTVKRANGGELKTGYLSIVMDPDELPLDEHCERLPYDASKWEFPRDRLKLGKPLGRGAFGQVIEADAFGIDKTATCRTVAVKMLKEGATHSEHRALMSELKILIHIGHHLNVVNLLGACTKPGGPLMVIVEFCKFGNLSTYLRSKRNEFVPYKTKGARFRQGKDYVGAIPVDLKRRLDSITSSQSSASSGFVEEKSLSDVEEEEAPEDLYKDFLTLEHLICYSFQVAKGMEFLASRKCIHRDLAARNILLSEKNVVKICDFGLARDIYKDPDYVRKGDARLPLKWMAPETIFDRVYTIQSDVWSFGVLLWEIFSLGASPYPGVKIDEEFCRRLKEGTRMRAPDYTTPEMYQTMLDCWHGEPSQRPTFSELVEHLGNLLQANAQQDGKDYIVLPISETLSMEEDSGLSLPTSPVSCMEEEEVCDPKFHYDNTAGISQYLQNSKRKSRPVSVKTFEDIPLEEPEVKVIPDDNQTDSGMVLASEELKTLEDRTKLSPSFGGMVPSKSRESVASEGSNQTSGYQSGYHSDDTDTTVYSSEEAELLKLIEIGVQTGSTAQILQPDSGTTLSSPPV

FGFR1 = FGFR1 (Homo sapiens, UniProt P11362); settings: relative IC50: reported IC50 toward FGFR1 divided by next lowest reported IC50 to any gene target
Sequence of FGFR1 (P11362 22-822, species assumed): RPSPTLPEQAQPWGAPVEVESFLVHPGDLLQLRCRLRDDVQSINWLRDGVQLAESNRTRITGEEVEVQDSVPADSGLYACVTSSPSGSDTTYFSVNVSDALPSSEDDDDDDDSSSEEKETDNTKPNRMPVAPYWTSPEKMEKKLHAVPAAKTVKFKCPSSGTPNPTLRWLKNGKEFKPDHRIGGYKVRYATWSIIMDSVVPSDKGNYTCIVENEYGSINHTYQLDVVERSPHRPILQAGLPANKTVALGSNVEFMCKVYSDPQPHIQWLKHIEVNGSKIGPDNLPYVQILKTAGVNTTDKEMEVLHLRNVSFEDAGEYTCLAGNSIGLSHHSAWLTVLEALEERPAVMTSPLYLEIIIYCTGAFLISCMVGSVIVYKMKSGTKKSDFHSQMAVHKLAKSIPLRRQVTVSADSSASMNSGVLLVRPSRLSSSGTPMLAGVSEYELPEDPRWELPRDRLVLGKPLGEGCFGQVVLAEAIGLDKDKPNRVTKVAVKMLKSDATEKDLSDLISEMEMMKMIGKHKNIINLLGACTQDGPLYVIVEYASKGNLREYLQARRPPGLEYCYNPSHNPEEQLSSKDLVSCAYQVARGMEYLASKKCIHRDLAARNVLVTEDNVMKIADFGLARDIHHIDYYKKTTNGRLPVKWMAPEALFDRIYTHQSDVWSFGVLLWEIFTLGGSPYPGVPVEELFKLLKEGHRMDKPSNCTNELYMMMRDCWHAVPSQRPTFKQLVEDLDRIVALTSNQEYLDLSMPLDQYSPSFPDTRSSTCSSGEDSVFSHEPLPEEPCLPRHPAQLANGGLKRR

EPHX2 = molecular target: T1, EPHX2 (Homo sapiens, UniProt P34913); settings: cited from earlier work
T1 sequence (P34913 1-555): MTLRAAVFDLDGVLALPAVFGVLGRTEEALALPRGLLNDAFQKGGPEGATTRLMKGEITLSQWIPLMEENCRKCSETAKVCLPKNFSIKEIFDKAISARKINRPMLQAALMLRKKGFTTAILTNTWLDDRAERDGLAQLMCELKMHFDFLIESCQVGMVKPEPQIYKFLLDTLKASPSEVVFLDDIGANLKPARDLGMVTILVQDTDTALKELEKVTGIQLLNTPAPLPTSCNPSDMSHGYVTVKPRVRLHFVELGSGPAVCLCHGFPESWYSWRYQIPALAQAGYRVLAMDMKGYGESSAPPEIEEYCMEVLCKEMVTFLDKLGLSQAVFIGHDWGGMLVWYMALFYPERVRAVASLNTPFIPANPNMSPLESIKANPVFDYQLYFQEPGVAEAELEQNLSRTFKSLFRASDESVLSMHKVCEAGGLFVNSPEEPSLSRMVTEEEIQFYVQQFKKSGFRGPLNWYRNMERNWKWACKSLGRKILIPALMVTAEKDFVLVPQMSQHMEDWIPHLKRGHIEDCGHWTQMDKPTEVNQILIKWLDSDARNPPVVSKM

any gene target = settings: lowest reported IC50 to any gene target; read-out: min IC50; cited from earlier work
[1] = Brivanib alaninate 50, SU5402 25, Cediranib maleate 5, Regorafenib 10, infigratinib 5 mg/kg
[2] = SU5402 25, Cediranib maleate 5, Regorafenib 10, infigratinib 5 mg/kg

VEGFR2, rIC50 (VEGFR2): 8.4
FGFR1, rIC50 (FGFR1): 3.0
SMILES: CNC(=O)c1cc(Oc2ccc(NC(=O)Nc3ccc(Cl)c(C(F)(F)F)c3)c(F)c2)ccn1 [compound 11167602, Regorafenib]
Body fat (Echo MRI) vs vehicle (Zmpste24−/− mice; [1]): did not show an increase
Intrascapular brown fat mass (percent of body weight) vs vehicle (Zmpste24−/− mice; [1]): no alteration
Body weight vs vehicle (Zmpste24−/− mice; [2]): did not show an increase
Lean muscle vs vehicle (Zmpste24−/− mice; [2]): did not show an increase
avg rIC50 (VEGFR2 and FGFR1): 5.7
pIC50 (EPHX2): > 8.52
pIC50 (any gene target): 9.00
